In brackets after ≈: the same amount, converted by molar mass.
System: E. Coli and Klebsiella
Test: In vitro dilution growth/cidal experiments
Assay type: cell-based
Experimental: In vitro dilution growth/cidal experiments were conducted on E. Coli and Klebsiella to determine doses of rifaximin and NAC, including lowest doses of rifaximin and lowest doses of NAC.

## CC(=O)N[C@@H](CS)C(=O)O [NAC, N-acetylcysteine]
  effect of NAC on effectiveness of rifaximin in killing E. coli and Klebsiella: improves the effectiveness of rifaximin

## CO[C@H]1/C=C/O[C@@]2(C)Oc3c(C)c(O)c4c(O)c(c5c(nc6cc(C)ccn65)c4c3C2=O)NC(=O)/C(C)=C\C=C\[C@H](C)[C@H](O)[C@@H](C)[C@@H](O)[C@@H](C)[C@H](OC(C)=O)[C@@H]1C [rifaximin]
Escherichia coli, with NAC concentration of 0.125 mg/mL, E. Coli and Klebsiella, organism of the value not specified, read-out: minimal inhibitory concentration (MIC) for rifaximin
  MIC: 4 µg/mL (≈ 5.09 µM)

— US20250275950A1, “RIFAXIMIN AND N-ACETYL CYSTEINE FORMULATIONS” (Cedars-Sinai Medical Center, priority 2022, published 2025)
